From US7109380B2, “Cyclopentenedione antifungal compounds and methods for their use” (The University of Mississippi, priority 2004, dated 2006)
Converted amounts (≈) assume the structure as drawn. “And” between values parts separate entries of the source, which are not always exact repeats. Identical values can stand only once. Like-named read-outs stand apart in the source and are kept apart here.

What was measured:
[1] = system: Cryptococcus neoformans ATCC 90113; assay: In vitro antifungal susceptibility testing (modified NCCLS method); type: cell-based; details: for IC50: read-out: IC50 (50% inhibitory concentration)
[2] = system: Candida albicans ATCC 90028; assay: In vitro antifungal susceptibility testing (modified NCCLS method), media pH 7.3; type: cell-based; details: Candida albicans ATCC 90028, Table 1
C. albicans ATCC 90028 = assay: In vitro antimicrobial assay (modified NCCLS), Candida media pH 4.5; type: cell-based, Candida albicans; details: C. albicans ATCC 90028, pH 4.5, Table 3; for IC50: read-out: IC50 (50% inhibitory concentration)
C. krusei ATCC 6258 = assay: as above; type: cell-based, Candida krusei; details: C. krusei ATCC 6258, pH 4.5; for IC50: Pichia kudriavzevii, ATCC6258, read-out: IC50 (50% inhibitory concentration)
C. glabrata ATCC 90030 = assay: as above; type: cell-based, Candida glabrata; details: C. glabrata ATCC 90030, pH 4.5; for IC50: read-out: IC50 (50% inhibitory concentration)
[3] = system: M. intracellulare ATCC 23068; assay: In vitro antibacterial assay (modified method of Franzblau, Alamar Blue); type: cell-based; details: Mycobacterium intracellulare, ATCC23068, M. intracellulare ATCC 23068; for IC50: read-out: IC50 (50% inhibitory concentration); for MBC: read-out: MBC (Minimum Bactericidal Concentration)
[4] = system: several cancer cell lines; details: background; cited from earlier work
human chymase = human chymase (Homo sapiens, UniProt P23946); details: background; cited from earlier work
human chymase, sequence (P23946 22-247): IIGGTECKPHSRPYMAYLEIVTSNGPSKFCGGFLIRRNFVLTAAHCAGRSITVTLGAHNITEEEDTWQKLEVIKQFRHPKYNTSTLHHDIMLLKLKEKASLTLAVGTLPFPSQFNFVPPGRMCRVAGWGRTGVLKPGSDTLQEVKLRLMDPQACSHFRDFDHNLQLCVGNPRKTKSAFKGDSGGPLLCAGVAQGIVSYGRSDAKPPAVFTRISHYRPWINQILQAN

[5] = system: wheat leaf rust caused by Puccinia recondite; details: background; cited from earlier work
[6] = Cr. neoformans ATCC 90113, Table 3
[7] = Cryptococcus neoformans ATCC 90113, Table 1
[8] = Cryptococcus neoformans, ATCC90113, Cr. neoformans ATCC 90113, Table 3
[9] = Candida albicans, ATCC90028, read-out: MFC
[10] = Candida albicans, ATCC90028, read-out: MIC
[11] = Nakaseomyces glabratus, ATCC90030
[12] = Nakaseomyces glabratus, ATCC90030, read-out: MFC
[13] = Nakaseomyces glabratus, ATCC90030, read-out: MIC

Compound	IC50 [1, 8] [µg/mL]	IC50 (C. albicans ATCC 90028; Candida albicans, ATCC90028) [µg/mL]	MIC (C. albicans ATCC 90028; [10]) [µg/mL]	IC50 (C. krusei ATCC 6258) [µg/mL]	MIC [3] [µg/mL]	IC50 [3] [µg/mL]	IC50 (C. glabrata ATCC 90030; [11]) [µg/mL]	MIC (C. glabrata ATCC 90030; [13]) [µg/mL]	MFC (C. albicans ATCC 90028; [9]) [µg/mL]	MFC (C. glabrata ATCC 90030; [12]) [µg/mL]	MBC [3] [µg/mL]	further results
C[C@@H]1[C@H](O)[C@@H](C)/C=C/C=C/C=C/C=C/C=C/C=C/C=C/[C@H](O[C@@H]2O[C@H](C)[C@@H](O)[C@H](N)[C@@H]2O)C[C@@H]2O[C@](O)(C[C@@H](O)C[C@@H](O)[C@H](O)CC[C@@H](O)C[C@@H](O)CC(=O)O[C@H]1C)C[C@H](O)[C@H]2C(=O)O [Amphotericin B, reference compound]												IC50 (50% inhibitory concentration) [1, 6]: 0.50 µg/mL (≈ 0.541 µM); MFC [1, 6]: 1.25 µg/mL (≈ 1.35 µM); MIC [1, 6]: 1.25 µg/mL (≈ 1.35 µM); MFC (Minimum Fungicidal Concentration) [1, 7]: 2.5 µg/mL (≈ 2.71 µM); MIC (Minimum Inhibitory Concentration) [1, 7]: 2.5 µg/mL (≈ 2.71 µM); MFC (Minimum Fungicidal Concentration) [2]: 5.00 µg/mL (≈ 5.41 µM); MIC (Minimum Inhibitory Concentration) [2]: 2.50 µg/mL (≈ 2.71 µM); IC50 (50% inhibitory concentration) (C. albicans ATCC 90028): 0.45 µg/mL (≈ 0.487 µM); MFC (C. albicans ATCC 90028): 1.25 µg/mL (≈ 1.35 µM); MIC (C. albicans ATCC 90028): 1.25 µg/mL (≈ 1.35 µM); IC50 (50% inhibitory concentration) (C. krusei ATCC 6258): 0.45 µg/mL (≈ 0.487 µM); MFC (C. krusei ATCC 6258): 1.25 µg/mL (≈ 1.35 µM); MIC (C. krusei ATCC 6258): 1.25 µg/mL (≈ 1.35 µM); IC50 (50% inhibitory concentration) (C. glabrata ATCC 90030): 0.20 µg/mL (≈ 0.216 µM); MFC (C. glabrata ATCC 90030): 1.25 µg/mL (≈ 1.35 µM); MIC (C. glabrata ATCC 90030): 1.25 µg/mL (≈ 1.35 µM)
CCOC(/C=C/c1ccccc1)=C1/C(=O)C=C(C)C1=O [Compound 7]	2 (≈ 7.45 µM)	2 (≈ 7.45 µM)	5 (≈ 18.6 µM)	8 (≈ 29.8 µM)	20 (≈ 74.5 µM)	7.5 (≈ 28 µM)	4.5 (≈ 16.8 µM)	10 (≈ 37.3 µM)	10 (≈ 37.3 µM)	20 (≈ 74.5 µM)	20 (≈ 74.5 µM)	MIC ([1]; Cryptococcus neoformans, ATCC90113, Cr. neoformans ATCC 90113, Table 3, read-out: MIC): 20 µg/mL (≈ 74.5 µM)
COC(/C=C/c1ccccc1)=C1C(=O)C(OC)=C(OC)C1=O [methyllinderone]												Cytotoxicity (in words) [4]: cytotoxic; Inhibition of human chymase (in words) (human chymase): moderate inhibitor
COC1=CC(=O)/C(=C(\C=C\c2ccccc2)OC)C1=O [methyllucidone]												Antifungal activity against wheat leaf rust (in words) [5]: moderately antifungal activity

Further lines, with some results ahead:

IC50 [1, 8] [µg/mL]	IC50 (C. albicans ATCC 90028; Candida albicans, ATCC90028) [µg/mL]	MIC (C. albicans ATCC 90028; [10]) [µg/mL]	IC50 (C. krusei ATCC 6258) [µg/mL]	MIC [3] [µg/mL]	IC50 [3] [µg/mL]	IC50 (C. glabrata ATCC 90030; [11]) [µg/mL]	MIC (C. glabrata ATCC 90030; [13]) [µg/mL]	Compound	MFC (C. albicans ATCC 90028; [9]) [µg/mL]	MFC (C. glabrata ATCC 90030; [12]) [µg/mL]	MBC [3] [µg/mL]	further results
20 (≈ 83.2 µM)	1 (≈ 4.16 µM)	2.5 (≈ 10.4 µM)	4.5 (≈ 18.7 µM)	20 (≈ 83.2 µM)	10 (≈ 41.6 µM)	1.5 (≈ 6.24 µM)	2.5 (≈ 10.4 µM)	CC1=CC(=O)/C(=C(O)/C=C/c2ccccc2)C1=O [Compound 2, coruscanone B]	5 (≈ 20.8 µM)	5 (≈ 20.8 µM)		MIC ([2]; ATCC90028, read-out: MIC (Minimum Inhibitory Concentration)): 50 µg/mL (≈ 208 µM); melting point: 125 °C and 124 °C
4.5 (≈ 15.9 µM)	1 (≈ 3.54 µM)	10 (≈ 35.4 µM)	9 (≈ 31.9 µM)	20 (≈ 70.8 µM)	15 (≈ 53.1 µM)	5.5 (≈ 19.5 µM)		CC(=O)OC(/C=C/c1ccccc1)=C1/C(=O)C=C(C)C1=O [Compound 8]			20 (≈ 70.8 µM)	
